Read-outs that look alike come from different tables or passages of the source.

One data set is described as follows: LogD. The note with it: pH 7.4; In vitro LogD.
In a further data set the target is T1, CHK1(h) (Homo sapiens, UniProt O14757).
T1 construct: gene CHEK1
T1 sequence (O14757 1-476): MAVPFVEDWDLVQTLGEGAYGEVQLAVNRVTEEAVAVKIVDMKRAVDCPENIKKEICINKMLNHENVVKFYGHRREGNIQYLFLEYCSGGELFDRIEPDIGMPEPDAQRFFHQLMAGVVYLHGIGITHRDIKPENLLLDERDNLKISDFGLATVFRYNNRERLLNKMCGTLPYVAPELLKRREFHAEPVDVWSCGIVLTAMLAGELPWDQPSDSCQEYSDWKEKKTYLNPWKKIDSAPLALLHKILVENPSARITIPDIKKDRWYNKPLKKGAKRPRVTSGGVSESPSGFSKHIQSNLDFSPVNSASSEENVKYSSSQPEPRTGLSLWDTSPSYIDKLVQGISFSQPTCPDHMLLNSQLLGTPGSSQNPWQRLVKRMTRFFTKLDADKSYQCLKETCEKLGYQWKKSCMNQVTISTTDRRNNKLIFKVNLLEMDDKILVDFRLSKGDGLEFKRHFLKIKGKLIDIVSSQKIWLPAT
Kind of data set: biochemical. Also on record: In vitro kinase panel profiling, per cent remaining kinase activity at 10 uM. The note with it: atp_concentration=90, read-out: % of control remaining. The source says:
(§1) We derisk potential for off-target activity by profiling the compound in a CEREP panel, a standard secondary pharmacology assessment, as well as a kinase panel to derisk a potential hinge-binding motif in our leads, and a PARP panel to derisk activity against human […]. Reassuringly, the compounds are selective, with the only off-targets being moderate human CHRM2 and KOR receptors activity associated with ASAP-0011198.

The target of a further data set is CDK9/cyclin T1(h) (Homo sapiens, UniProt P50750). Kind of data set: biochemical. Also on record: In vitro kinase panel profiling, per cent remaining kinase activity at 10 uM. The settings on record: atp_concentration=45, read-out: % of control remaining.
Source text: as §1

Data set [1] has as its target T2, PI3 Kinase (p110δ/p85α)(h) (Homo sapiens, UniProt O00329).
T2 construct: gene PIK3CD
Kind of data set: biochemical. Also on record: In vitro kinase panel profiling, per cent remaining kinase activity at 10 uM. The note with it: atp_concentration=200, read-out: % of control remaining.
Source text: as §1

The target of the next data set is JAK2(h) (Homo sapiens, UniProt O60674). Kind of data set: biochemical. Also on record: In vitro kinase panel profiling, per cent remaining kinase activity at 10 uM. The settings on record: atp_concentration=45, read-out: % of control remaining.
Source text: as §1

Another data set deals with T3, CaMKI(h) (Homo sapiens, UniProt Q14012).
T3 construct: gene CAMK1
Kind of data set: biochemical. The note with it: atp_concentration=200, read-out: % of control remaining. Also on record: In vitro kinase panel profiling, per cent remaining kinase activity at 10 uM.
Source text: as §1

Another data set addresses ALK(h) (Homo sapiens, UniProt Q9UM73). Kind of data set: biochemical. Also on record: In vitro kinase panel profiling, per cent remaining kinase activity at 10 uM. The note with it: atp_concentration=200, read-out: % of control remaining.
Source text: as §1

Another data set deals with Plk3(h) (Homo sapiens, UniProt Q9H4B4). Kind of data set: biochemical. The settings on record: atp_concentration=70, read-out: % of control remaining. Also on record: In vitro kinase panel profiling, per cent remaining kinase activity at 10 uM.
Plk3(h), sequence (Q9H4B4 whole entry): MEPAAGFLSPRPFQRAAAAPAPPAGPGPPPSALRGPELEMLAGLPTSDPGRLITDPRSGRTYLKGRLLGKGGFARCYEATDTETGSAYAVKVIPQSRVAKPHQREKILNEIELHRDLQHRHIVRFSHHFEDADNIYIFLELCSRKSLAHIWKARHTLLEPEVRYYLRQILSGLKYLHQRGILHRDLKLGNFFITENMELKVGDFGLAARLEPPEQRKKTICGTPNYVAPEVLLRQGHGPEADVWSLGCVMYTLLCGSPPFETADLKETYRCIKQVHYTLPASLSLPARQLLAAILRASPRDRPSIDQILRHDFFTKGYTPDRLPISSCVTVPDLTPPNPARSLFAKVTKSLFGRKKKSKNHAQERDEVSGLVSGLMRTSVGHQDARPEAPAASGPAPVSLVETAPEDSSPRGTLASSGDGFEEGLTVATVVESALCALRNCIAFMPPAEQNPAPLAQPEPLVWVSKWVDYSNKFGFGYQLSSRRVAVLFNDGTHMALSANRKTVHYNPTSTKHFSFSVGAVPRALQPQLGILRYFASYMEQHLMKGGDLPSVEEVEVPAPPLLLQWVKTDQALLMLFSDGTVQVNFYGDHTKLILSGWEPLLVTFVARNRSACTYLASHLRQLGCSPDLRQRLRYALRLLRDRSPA
Source text: as §1

A further data set has as its target T4, PDGFRβ(h) (Homo sapiens, UniProt P09619).
T4 construct: gene PDGFRB
Kind of data set: biochemical. Also on record: In vitro kinase panel profiling, per cent remaining kinase activity at 10 uM. The settings on record: atp_concentration=200, read-out: % of control remaining.
Source text: as §1

The target of a further data set is CDK2/cyclinA(h) (Homo sapiens, UniProt P24941). Kind of data set: biochemical. Also on record: In vitro kinase panel profiling, per cent remaining kinase activity at 10 uM. The settings on record: atp_concentration=45, read-out: % of control remaining.
Source text: as §1

The next data set addresses T5, LOK(h) (Homo sapiens, UniProt O94804).
T5 construct: gene STK10
Kind of data set: biochemical. Also on record: In vitro kinase panel profiling, per cent remaining kinase activity at 10 uM. The settings on record: atp_concentration=120, read-out: % of control remaining.
Source text: as §1

The target in another data set is T6, p70S6K(h) (Homo sapiens, UniProt P23443).
T6 construct: gene RPS6KB1
Kind of data set: biochemical. Also on record: In vitro kinase panel profiling, per cent remaining kinase activity at 10 uM. The settings on record: atp_concentration=15, read-out: % of control remaining.
Source text: as §1

A further data set addresses KDR(h) (Homo sapiens, UniProt P35968). Kind of data set: biochemical. Also on record: In vitro kinase panel profiling, per cent remaining kinase activity at 10 uM. The settings on record: atp_concentration=90, read-out: % of control remaining.
Source text: as §1

Another data set concerns the target EGFR(h) (Homo sapiens, UniProt P00533). Kind of data set: biochemical. Also on record: In vitro kinase panel profiling, per cent remaining kinase activity at 10 uM. The note with it: atp_concentration=10, read-out: % of control remaining.
Source text: as §1

T5 sequence (O94804 whole entry): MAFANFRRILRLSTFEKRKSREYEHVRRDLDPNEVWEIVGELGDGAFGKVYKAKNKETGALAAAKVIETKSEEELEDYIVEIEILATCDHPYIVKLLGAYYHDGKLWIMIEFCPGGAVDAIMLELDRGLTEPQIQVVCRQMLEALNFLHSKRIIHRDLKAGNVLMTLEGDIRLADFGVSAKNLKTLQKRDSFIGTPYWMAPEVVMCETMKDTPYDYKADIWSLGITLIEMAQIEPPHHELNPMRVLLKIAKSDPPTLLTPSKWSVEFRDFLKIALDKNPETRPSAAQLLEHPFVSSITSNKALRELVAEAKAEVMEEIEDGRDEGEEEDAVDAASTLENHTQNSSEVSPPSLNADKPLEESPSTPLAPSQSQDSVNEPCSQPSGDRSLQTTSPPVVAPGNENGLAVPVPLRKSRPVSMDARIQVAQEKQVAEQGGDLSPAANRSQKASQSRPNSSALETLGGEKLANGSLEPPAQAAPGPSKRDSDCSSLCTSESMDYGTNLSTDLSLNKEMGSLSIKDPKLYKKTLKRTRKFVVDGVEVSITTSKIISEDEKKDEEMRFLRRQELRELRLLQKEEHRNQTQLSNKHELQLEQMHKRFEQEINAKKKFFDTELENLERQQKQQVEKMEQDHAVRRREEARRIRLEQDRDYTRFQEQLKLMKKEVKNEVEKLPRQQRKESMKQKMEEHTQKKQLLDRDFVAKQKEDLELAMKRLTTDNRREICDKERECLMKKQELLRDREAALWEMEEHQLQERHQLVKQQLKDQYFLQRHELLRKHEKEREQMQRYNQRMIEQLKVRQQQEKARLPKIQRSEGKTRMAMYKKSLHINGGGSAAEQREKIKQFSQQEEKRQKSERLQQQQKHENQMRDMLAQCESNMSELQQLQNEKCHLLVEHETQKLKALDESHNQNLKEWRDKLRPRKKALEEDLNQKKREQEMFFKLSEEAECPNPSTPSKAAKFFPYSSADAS
ALK(h), sequence (Q9UM73 whole entry): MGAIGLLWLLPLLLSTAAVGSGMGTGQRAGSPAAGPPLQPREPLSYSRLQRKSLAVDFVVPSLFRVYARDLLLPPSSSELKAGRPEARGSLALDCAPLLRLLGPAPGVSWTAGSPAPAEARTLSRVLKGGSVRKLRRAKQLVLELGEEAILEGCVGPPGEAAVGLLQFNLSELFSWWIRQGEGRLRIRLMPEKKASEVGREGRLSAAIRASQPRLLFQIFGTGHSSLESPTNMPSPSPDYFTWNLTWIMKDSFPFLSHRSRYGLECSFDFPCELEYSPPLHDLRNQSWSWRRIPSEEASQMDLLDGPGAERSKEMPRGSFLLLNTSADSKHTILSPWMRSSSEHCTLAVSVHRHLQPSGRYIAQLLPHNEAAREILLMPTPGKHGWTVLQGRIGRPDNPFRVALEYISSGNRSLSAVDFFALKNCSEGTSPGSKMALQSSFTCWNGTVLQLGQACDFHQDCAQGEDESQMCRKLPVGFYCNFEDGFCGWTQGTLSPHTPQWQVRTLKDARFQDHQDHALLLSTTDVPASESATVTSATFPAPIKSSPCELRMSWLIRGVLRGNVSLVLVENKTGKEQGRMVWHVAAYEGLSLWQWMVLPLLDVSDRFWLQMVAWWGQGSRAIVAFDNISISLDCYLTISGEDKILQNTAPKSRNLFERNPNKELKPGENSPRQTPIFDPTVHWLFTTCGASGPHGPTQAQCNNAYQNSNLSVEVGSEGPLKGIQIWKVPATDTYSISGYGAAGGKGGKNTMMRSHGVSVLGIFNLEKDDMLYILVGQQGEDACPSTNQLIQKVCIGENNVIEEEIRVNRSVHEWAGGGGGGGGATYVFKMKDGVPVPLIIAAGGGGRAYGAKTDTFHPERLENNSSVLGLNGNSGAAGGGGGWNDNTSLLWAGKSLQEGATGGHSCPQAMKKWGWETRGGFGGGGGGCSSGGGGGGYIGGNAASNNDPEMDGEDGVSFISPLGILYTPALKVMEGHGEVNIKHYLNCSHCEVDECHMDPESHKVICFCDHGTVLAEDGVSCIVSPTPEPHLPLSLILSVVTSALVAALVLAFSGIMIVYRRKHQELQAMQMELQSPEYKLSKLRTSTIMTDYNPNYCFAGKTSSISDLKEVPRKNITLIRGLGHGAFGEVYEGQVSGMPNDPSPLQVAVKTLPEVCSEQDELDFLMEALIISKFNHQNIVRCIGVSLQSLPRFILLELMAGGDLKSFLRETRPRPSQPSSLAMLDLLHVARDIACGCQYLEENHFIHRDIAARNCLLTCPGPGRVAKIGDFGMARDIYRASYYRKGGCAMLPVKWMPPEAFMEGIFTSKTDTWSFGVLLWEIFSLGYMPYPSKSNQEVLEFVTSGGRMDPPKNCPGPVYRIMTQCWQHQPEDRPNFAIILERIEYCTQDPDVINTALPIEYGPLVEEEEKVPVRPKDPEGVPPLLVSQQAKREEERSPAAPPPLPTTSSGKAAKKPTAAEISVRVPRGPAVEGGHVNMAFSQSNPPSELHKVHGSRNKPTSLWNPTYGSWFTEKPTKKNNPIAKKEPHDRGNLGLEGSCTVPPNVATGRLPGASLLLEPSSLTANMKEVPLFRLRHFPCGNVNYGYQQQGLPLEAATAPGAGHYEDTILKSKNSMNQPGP
T2 sequence (O00329 whole entry): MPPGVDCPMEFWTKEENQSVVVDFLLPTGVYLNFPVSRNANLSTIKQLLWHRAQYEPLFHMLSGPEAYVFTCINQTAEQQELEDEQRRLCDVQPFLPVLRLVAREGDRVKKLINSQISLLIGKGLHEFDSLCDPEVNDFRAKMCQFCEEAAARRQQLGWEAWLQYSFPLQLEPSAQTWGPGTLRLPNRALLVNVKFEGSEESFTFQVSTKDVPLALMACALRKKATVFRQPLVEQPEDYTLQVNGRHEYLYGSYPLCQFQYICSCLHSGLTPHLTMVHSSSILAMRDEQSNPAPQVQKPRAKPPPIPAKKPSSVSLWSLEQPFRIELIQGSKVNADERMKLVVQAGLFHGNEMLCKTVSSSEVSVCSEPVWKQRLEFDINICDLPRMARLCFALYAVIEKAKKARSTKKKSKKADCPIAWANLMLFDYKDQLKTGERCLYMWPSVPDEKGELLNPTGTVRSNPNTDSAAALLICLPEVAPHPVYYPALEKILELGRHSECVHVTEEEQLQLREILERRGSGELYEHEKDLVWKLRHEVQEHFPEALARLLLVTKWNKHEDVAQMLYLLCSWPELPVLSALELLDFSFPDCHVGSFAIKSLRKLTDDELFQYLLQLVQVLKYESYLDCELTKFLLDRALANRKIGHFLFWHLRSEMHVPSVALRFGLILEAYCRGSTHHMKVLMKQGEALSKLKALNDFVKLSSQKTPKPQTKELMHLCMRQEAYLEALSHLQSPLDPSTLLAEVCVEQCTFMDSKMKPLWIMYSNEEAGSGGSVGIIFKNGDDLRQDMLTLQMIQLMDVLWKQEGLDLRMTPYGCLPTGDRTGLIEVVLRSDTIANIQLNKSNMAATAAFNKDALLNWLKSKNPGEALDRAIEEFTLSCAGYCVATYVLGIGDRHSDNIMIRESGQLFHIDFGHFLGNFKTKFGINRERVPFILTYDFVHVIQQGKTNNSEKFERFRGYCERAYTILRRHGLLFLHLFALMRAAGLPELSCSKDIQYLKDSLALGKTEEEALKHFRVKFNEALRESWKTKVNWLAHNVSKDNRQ
T2 sequence (P27986 whole entry partner): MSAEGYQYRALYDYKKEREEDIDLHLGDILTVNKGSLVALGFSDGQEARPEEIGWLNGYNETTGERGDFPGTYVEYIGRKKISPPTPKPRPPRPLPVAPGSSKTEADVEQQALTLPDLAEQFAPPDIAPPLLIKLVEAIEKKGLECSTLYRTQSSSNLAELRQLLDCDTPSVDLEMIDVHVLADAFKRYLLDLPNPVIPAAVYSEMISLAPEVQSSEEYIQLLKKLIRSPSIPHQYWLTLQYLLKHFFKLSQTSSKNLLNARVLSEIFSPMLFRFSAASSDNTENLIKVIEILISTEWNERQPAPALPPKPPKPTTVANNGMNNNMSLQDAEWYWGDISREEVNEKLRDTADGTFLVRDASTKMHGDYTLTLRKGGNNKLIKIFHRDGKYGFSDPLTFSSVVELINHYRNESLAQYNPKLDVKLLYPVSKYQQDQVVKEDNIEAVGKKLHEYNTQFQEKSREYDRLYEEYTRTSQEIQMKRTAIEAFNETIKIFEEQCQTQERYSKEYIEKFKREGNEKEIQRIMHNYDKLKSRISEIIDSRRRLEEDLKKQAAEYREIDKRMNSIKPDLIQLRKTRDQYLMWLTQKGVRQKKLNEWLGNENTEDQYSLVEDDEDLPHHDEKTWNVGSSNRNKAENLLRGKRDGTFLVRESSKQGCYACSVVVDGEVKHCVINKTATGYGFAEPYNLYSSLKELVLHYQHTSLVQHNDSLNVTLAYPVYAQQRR

In “LogD”, `CC(C)[C@H](Nc1ncnc2[nH]c(-c3cnn(C)c3C#N)cc12)c1ccc2c(n1)OCCO2` [ASAP-0010715] came in with a logd of 3.7. For the same molecule, the remaining activity at 10 µM was determined as 119% on CHK1(h) (batch_name=ASAP-0010715-002); 79% on CDK9/cyclin T1(h) (batch_name=ASAP-0010715-002); 66% in [1] (batch_name=ASAP-0010715-002); 115% at JAK2(h) (batch_name=ASAP-0010715-002); 104% on CaMKI(h) (batch_name=ASAP-0010715-002); 116% on ALK(h) (batch_name=ASAP-0010715-002). Moreover, the remaining activity at 10 µM on Plk3(h) (batch_name=ASAP-0010715-002) was determined as 102%; on PDGFRβ(h) (batch_name=ASAP-0010715-002) it was 92%; at CDK2/cyclinA(h) (batch_name=ASAP-0010715-002), 104%; at LOK(h) (batch_name=ASAP-0010715-002), 45%; on p70S6K(h) (batch_name=ASAP-0010715-002), 125%; at KDR(h) (batch_name=ASAP-0010715-002) it was 76%. Also, the remaining activity at 10 µM on EGFR(h) (batch_name=ASAP-0010715-002) was found to be 90%.

In “LogD”, `COc1ccc([C@H](Cc2nnn[nH]2)NC(=O)c2ncnc3[nH]ccc23)cc1` [ASAP-0015381] returned a logd of -0.5. In addition, the remaining activity at 10 µM on CHK1(h) (batch_name=ASAP-0015381-001) turned out to be 110%; at CDK9/cyclin T1(h) (batch_name=ASAP-0015381-001), 109%; in data set [1] (batch_name=ASAP-0015381-001), 97%; on JAK2(h) (batch_name=ASAP-0015381-001), 116%; at CaMKI(h) (batch_name=ASAP-0015381-001) it was 103%; at ALK(h) (batch_name=ASAP-0015381-001), 106%. Also, the remaining activity at 10 µM came out at 102% on Plk3(h) (batch_name=ASAP-0015381-001); 103% on PDGFRβ(h) (batch_name=ASAP-0015381-001); 113% on CDK2/cyclinA(h) (batch_name=ASAP-0015381-001); 102% on LOK(h) (batch_name=ASAP-0015381-001); 113% on p70S6K(h) (batch_name=ASAP-0015381-001); 97% at KDR(h) (batch_name=ASAP-0015381-001). Moreover, the remaining activity at 10 µM at EGFR(h) (batch_name=ASAP-0015381-001) worked out at 97%.

These data come from paper doi:10.1101/2024.08.19.608619, “Discovery of potent SARS-CoV-2 nsp3 macrodomain inhibitors uncovers lack of translation to cellular antiviral response” (bioRxiv, 2024).
